Columns and labels:
[1] = tested on: PBMCs from a healthy adult human; assay: IFNγ ELISpot analysis of antigen peptides ex vivo; format: cell-based; conditions: for Activation*10 (IFNγ activity, activation values times 10): calculated by formula, neg 36.0; for Cells/100,000 cells (positive counts per 100,000 cells): cells pre-stimulated with peptide pool, 267,000 cells per well, duplicates; for Effectiveness of immunization (product of number of activated cells and activation): FIG. 11, descending order
[2] = tested on: peripheral blood mononuclear cells (PBMCs) from a human donor; assay: Intracellular Cytokine Staining (ICS) of antigen polypeptides; format: cell-based
Protocol: An Intracellular Cytokine Staining (ICS) assay to assess the T-cell responses induced by an antigen polypeptide in the spirit of the current invention was carried out following this experimental procedure. The experimental procedure involved several sequential steps to prepare and analyze freshly harvested peripheral blood mononuclear cells (PBMCs) from a human donor.
PBMCs were cultured in RPMI-1640 medium supplemented with 10% fetal bovine serum, penicillin-streptomycin, and L-glutamine at 37° C. with 5% CO2. After culture, the cells were divided into different experimental groups. The cells were then stimulated with the antigen peptide vaccine or a control peptide, along with appropriate cytokines and co-stimulatory molecules to facilitate T cell activation. The antigen peptide was designed to effectively stimulate both CD4 and CD8 T-cell responses.
To inhibit cytokine secretion and promote intracellular cytokine accumulation, brefeldin A was added to the stimulated cells at a concentration of 10 μg/mL, and the cells were incubated overnight. Subsequently, the cells were harvested, and staining was performed. Fluorescently labeled antibodies, including AlexaFluor 488-conjugated anti-IFNγ and APC-H7-conjugated anti-CD4, as well as Pacific Orange-conjugated anti-CD8 and a cell surface marker were added to the cells and incubated.
To facilitate antibody access to intracellular molecules, the cells were fixed and permeabilized using a fixation solution and permeabilization buffer. Intracellular cytokine staining was carried out by adding fluorescently labeled antibodies against IFNγ or other cytokines of interest. Following staining, flow cytometry analysis was performed by gating on CD4 and CD8 T cells to determine the percentage of cytokine-producing cells.
The obtained data were analyzed to compare the percentage of cytokine-producing CD4 and CD8 T cells stimulated with the antigen polypeptides to that of unstimulated CD4 and CD8 T cells or T cells stimulated with a control peptide. […]

[3] = tested on: T cell CD4 and CD8 activity; assay: Antigen response in mice, second trial (immunization, intracellular cytokine staining); format: in vivo, wild-type mice (C57BL/6); conditions: mice immunized with Pep2 C, restimulation with peptides (FIG. 9)
Protocol: 3 Groups of wild-type mice (C57BL/6) consisting of 5 mice (group 2,3) and 3 mice for the negative control (group 1) were administered different vaccine candidates (as following) for evaluation.
The Groups were administered the following compositions: • a) Group 1 (no vac.): no vaccine • b) Group 2 (Pep2 C): peptide mix (60 μg per single peptide, 12 peptides selected from SEQ ID NOs: 43, 44, 46, 47, 50-58) with c-di-AMP (10 mg/dose) adjuvant • c) Group 3 (mRNA): Comirnaty mRNA vaccine (5 μg/dose)
The antigen peptide formulations in accordance with the present invention were administered subcutaneous (SC) three times in two-week intervals (see FIG. 7), the mRNA vaccine was administered intramuscular (IM) two times in a four-week interval (Group 3). After five weeks the immune response was determined, T cell CD8 activity was examined by cytokines secreted in response to stimulation with the peptide antigens were determined by intracellular cytokine staining (ICS) with Intracellular cytokine staining with IFNγ and TNFγ. Specific antibodies.

| Sequence | Activation*10 (IFNγ activity, activation values times 10) [1] | Cells/100,000 cells (positive counts per 100,000 cells) ([1]; neg 25.8) | Effectiveness of immunization (product of number of activated cells and activation) [1] | other results |
| --- | --- | --- | --- | --- |
| AATKMSECVLGQSKRVD [Pep-9] | 38.0 | 22.1 Cells/100,000 cells | – | – |
| AISSVLNDILSRLDKVE [Pep-10] | 34.8 | 17.2 Cells/100,000 cells | – | – |
| DGYFKIYSKHTPINLV [Pep-17] | 99.6 | 249.1 Cells/100,000 cells | most effective | Cells/100,000 cells (positive counts per 100,000 cells) ([1]; neg 25.8, listed as Peptide 17): especially high counts |
| GDCLGDIAARDLIC [Pep-14] | – | 262.2 Cells/100,000 cells | most effective | Cells/100,000 cells (positive counts per 100,000 cells) ([1]; neg 25.8, listed as Peptide 14): especially high counts |
| GKEDLKFPRGQGVPINTNSS [Pep-18] | 10.1 | 24.3 Cells/100,000 cells | – | – |
| IRAAEIRASANLAATKM [Pep-21] | – | 50.9 Cells/100,000 cells | most effective | – |
| KDLSPRWYFYYLGTG [Pep-20] | 93.3 | 31.5 Cells/100,000 cells | – | – |
| LGKYEQYIKWPWYIWLGFIAG [Pep-15] | 36.5 | 16.9 Cells/100,000 cells | – | – |
| MAYRFNGIGVTQNVLYE [Pep-7] | – | 41.9 Cells/100,000 cells | most effective | CD8 / CD8+ response in ICS ([2]; FIG. 5, FIG. 9, groups of Table E7-1): strong CD8+ response; CD4 response in ICS ([2]; FIG. 8, groups of Table E7-1): some CD4 response; Individual activities in the ICS study ([2]; single peptides): high individual activities; Single peptide-specific CD8 T cell reaction [3]: caused a CD8 T cell reaction |
| RQGTDYKHWPQIAQF (synthetic peptide used as antigen comprising at least one HLA antigen peptide) [Pep-19] | 36.6 | 21.3 Cells/100,000 cells | – | – |
| TFEYVSQPFLMDLEGKQ [Pep-13] | 53.1 | 322.8 Cells/100,000 cells | most effective | Cells/100,000 cells (positive counts per 100,000 cells) ([1]; neg 25.8, listed as Peptide 13): especially high counts |

From patent US20260007729A1, “IM[…] VIRAL […](S)” (IMMUNEO Therapeutics GmbH, priority 2022, published 2026)
